Consider 25 compounds from ChEMBL document CHEMBL5113417, “Discovery of 4-(3-aminopyrrolidinyl)-3-aryl-5-(benzimidazol-2-yl)-pyridines as potent and selective SST5 agonists for the treatment of congenital hyperinsulinism” (Bioorg Med Chem Lett, 2022).

Data set [1] concerns the target Somatostatin receptor type 5 (Homo sapiens, UniProt P35346). The data set is described as follows: Agonist activity at human SST5 expressed in CHO-K1 cells assessed as reduction in NKH477-induced intracellular cAMP level. The class given is functional, cell-based. On the technique in general: Cyclic AMP is a second messenger, typically raised through Gs and lowered through Gi signalling.

Data set [2] addresses T1, Cytochrome P450 3A4 (Homo sapiens, UniProt P08684). The data set is described as follows: Inhibition of CYP3A4 (unknown origin). It counts as ADME.
The target in data set [3] is Somatostatin receptor type 1 (Homo sapiens, UniProt P30872). The data set is described as follows: Agonist activity at human SST1. It counts as functional.
Sequence of Somatostatin receptor type 1 (P30872 whole entry): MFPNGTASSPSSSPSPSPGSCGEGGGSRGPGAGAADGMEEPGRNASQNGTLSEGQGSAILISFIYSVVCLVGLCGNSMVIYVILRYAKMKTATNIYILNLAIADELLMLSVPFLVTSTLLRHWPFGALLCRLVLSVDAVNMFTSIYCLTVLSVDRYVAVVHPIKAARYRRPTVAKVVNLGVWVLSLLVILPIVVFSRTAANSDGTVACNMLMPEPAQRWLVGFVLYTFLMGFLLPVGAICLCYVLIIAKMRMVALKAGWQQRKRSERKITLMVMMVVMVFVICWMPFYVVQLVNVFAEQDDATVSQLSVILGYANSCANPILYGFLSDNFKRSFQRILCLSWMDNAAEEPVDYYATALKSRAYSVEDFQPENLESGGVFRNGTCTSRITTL
Data set [4] deals with Somatostatin receptor type 3 (Homo sapiens, UniProt P32745). The experiment in a line: Agonist activity at human SST3. The class given is functional.
Sequence of Somatostatin receptor type 3 (P32745 whole entry): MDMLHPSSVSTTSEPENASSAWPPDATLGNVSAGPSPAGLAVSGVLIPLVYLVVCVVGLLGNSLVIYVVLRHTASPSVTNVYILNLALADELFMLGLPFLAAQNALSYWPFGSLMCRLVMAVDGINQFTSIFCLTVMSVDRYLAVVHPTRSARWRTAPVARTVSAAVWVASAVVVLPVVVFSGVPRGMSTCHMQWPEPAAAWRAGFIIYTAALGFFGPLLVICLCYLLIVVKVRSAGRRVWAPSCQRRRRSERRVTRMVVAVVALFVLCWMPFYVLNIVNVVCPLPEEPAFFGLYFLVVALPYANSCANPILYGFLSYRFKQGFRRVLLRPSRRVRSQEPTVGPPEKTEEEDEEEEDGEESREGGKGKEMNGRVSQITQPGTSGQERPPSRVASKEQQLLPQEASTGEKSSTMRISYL
Data set [5] deals with Somatostatin receptor type 5 (Rattus norvegicus, UniProt P30938). The experiment in a line: Agonist activity at rat SST5. The class given is functional.
Sequence of Somatostatin receptor type 5 (Rattus norvegicus, UniProt P30938) (P30938 whole entry, looked up): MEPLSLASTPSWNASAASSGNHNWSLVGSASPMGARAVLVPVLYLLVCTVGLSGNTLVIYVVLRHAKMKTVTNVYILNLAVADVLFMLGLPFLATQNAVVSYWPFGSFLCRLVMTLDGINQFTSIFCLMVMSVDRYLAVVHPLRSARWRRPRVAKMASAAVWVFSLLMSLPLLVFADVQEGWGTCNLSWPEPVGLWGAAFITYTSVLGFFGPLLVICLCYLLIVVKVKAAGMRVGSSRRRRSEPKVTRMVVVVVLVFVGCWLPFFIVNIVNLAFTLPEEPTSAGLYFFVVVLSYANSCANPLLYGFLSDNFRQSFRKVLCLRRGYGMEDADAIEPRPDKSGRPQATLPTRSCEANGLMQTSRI
The target of data set [6] is Voltage-gated inwardly rectifying potassium channel KCNH2 (Homo sapiens, UniProt Q12809). The experiment in a line: Inhibition of hERG by patch clamp assay. It counts as toxicity. (In general: hERG is a cardiac potassium channel; its block is linked to QT prolongation.)
Sequence of Voltage-gated inwardly rectifying potassium channel KCNH2 (Q12809 whole entry): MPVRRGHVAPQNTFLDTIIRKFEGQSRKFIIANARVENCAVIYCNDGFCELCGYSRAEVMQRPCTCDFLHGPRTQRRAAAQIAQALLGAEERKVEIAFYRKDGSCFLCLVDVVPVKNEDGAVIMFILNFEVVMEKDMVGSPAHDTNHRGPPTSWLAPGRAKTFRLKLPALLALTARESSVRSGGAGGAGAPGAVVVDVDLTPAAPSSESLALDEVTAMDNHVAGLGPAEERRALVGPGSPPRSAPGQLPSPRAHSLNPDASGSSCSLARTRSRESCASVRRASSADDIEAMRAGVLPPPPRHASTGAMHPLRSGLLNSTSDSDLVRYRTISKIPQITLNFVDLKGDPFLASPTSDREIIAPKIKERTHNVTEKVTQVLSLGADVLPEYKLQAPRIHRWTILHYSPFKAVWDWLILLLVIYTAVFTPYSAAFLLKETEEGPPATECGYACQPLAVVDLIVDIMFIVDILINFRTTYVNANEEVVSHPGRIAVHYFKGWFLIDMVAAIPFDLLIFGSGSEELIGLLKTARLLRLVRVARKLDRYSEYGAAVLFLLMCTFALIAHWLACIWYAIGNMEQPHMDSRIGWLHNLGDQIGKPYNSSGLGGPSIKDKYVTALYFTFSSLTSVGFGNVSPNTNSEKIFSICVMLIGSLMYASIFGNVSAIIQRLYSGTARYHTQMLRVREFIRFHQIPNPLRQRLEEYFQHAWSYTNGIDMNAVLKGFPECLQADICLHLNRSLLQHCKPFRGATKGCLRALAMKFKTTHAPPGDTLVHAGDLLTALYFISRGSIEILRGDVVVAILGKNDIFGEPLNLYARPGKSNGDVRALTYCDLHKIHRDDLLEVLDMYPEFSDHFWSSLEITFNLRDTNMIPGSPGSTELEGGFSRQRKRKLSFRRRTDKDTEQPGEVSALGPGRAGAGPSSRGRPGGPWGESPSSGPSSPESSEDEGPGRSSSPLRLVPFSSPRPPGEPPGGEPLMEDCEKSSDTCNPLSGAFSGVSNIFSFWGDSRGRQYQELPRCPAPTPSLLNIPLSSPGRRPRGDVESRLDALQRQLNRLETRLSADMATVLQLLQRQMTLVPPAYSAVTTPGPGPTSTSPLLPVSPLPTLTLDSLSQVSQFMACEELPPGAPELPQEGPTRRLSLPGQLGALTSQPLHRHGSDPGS
Data set [7] addresses T2, Cytochrome P450 2D6 (Homo sapiens, UniProt P10635). The data set is described as follows: Inhibition of CYP2D6 (unknown origin) preincubated for 30 mins. It counts as ADME.
Data set [8] deals with T2, Cytochrome P450 2D6. The data set is described as follows: Inhibition of CYP2D6 (unknown origin). The class given is ADME.
For data set [9], the target named is Somatostatin receptor type 4 (Homo sapiens, UniProt P31391). The data set is described as follows: Agonist activity at human SST4. It counts as functional.
Sequence of Somatostatin receptor type 4 (P31391 whole entry): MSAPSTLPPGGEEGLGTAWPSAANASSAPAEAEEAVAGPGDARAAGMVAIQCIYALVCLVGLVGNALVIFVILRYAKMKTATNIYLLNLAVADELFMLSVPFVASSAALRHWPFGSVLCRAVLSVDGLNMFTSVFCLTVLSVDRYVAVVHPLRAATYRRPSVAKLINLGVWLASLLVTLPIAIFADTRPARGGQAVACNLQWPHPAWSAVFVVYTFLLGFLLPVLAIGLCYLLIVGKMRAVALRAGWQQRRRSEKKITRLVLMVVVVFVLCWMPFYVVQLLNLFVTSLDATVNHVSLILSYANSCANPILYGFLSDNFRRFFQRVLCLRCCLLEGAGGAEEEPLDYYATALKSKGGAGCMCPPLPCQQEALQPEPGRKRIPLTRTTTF
In data set [10] the target is Somatostatin receptor type 2 (Homo sapiens, UniProt P30874). The experiment in a line: Agonist activity at human SST2. It counts as functional.
Sequence of Somatostatin receptor type 2 (P30874 whole entry): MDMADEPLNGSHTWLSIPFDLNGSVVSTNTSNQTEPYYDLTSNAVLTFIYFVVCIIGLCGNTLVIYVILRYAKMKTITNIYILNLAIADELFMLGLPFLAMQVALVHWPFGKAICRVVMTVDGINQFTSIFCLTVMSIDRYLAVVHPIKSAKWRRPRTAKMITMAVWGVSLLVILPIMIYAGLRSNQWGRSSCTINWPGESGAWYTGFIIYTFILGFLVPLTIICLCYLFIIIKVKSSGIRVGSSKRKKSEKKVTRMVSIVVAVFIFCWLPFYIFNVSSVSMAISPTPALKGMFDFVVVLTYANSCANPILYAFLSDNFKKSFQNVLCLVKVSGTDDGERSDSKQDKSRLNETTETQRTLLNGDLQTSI
In data set [11] the target is T1, Cytochrome P450 3A4. The data set is described as follows: Inhibition of CYP3A4 (unknown origin) preincubated for 30 mins. The class given is ADME.
Data set [12] can be described thus: AUC(0 to infinity) in Sprague-Dawley rat at 10 mg/kg, po. It counts as ADME, organism-based. More on the design: time infinity, dose 10 mg/kg, route po. Particulars: in vivo.
Data set [13] is described as follows: Volume of distribution at steady state in Sprague-Dawley rat at 2.5 mg/kg, iv. The conditions noted are these: in vivo. It counts as ADME, organism-based.
Data set [14] can be described thus: Cmax in Sprague-Dawley rat at 10 mg/kg, po. Particulars: in vivo. Details: dose 10 mg/kg, route po. The class given is ADME, organism-based.
Data set [15] can be described thus: Metabolic stability in human liver microsomes assessed as intrinsic clearance. It counts as ADME, Microsome. (Liver microsomes are a subcellular fraction often used to study metabolism.)
Data set [16] is described as follows: Metabolic stability in rat liver microsomes assessed as intrinsic clearance. The class given is ADME, Microsome.
The target in data set [17] is T2, Cytochrome P450 2D6. The data set is described as follows: Time dependent inhibition of CYP2D6 (unknown origin) preincubated for 30 mins. The class given is ADME.
In data set [18] the target is T2, Cytochrome P450 2D6. The experiment in a line: Time dependent inhibition of CYP2D6 (unknown origin). It counts as ADME.
Data set [19] is described as follows: Oral bioavailability in Sprague-Dawley rat at 10 mg/kg. It counts as ADME, organism-based. The conditions noted are these: in vivo.
Data set [20] can be described thus: Half life in Sprague-Dawley rat at 2.5 mg/kg, iv. The class given is ADME, organism-based. Particulars: in vivo.
Another data set deals with Cytochrome P450 2C9 (Homo sapiens, UniProt P11712). The data set is described as follows: Inhibition of CYP2C9 (unknown origin) by fluorescent assay. It counts as ADME.
Sequence of Cytochrome P450 2C9 (P11712 whole entry): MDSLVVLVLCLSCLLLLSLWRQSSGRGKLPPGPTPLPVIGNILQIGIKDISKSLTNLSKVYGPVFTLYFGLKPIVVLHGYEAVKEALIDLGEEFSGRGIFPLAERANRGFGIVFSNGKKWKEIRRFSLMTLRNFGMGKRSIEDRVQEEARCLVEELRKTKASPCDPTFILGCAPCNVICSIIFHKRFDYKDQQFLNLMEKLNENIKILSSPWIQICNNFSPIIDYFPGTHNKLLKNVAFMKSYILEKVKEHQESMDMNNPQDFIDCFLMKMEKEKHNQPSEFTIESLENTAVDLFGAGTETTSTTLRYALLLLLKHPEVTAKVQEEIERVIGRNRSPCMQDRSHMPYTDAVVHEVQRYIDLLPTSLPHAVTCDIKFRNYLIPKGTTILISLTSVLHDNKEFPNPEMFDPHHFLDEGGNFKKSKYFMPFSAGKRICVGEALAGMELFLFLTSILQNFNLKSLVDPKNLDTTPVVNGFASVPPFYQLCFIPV
Data set [21] is described as follows: Metabolic stability in monkey liver microsomes assessed as intrinsic clearance. It counts as ADME, Macaca mulatta, Microsome. Particulars: rhesus monkey.
Data set [22] can be described thus: Metabolic stability in rat liver microsomes assessed as half life. The class given is ADME, Microsome.
Data set [23] can be described thus: Metabolic stability in monkey liver microsomes assessed as half life. The class given is ADME, Macaca mulatta, Microsome. The conditions noted are these: rhesus monkey.
Data set [24] in a line: Volume of distribution at steady state in Sprague-Dawley rat at 5 mg/kg, iv. It counts as ADME, organism-based. The conditions noted are these: in vivo.
The next data set addresses Cytochrome P450 2C19 (Homo sapiens, UniProt P33261). The data set is described as follows: Inhibition of CYP2C19 (unknown origin) by fluorescent assay. It counts as ADME.
The nature of data set [25]: Cmax in Beagle dog at 5 mg/kg, po. More on the design: dose 5 mg/kg, route po. Particulars: in vivo. It counts as ADME, organism-based, Canis lupus familiaris.
A short description of data set [26]: Half life in Sprague-Dawley rat at 5 mg/kg, iv. The class given is ADME, organism-based. Particulars: in vivo.
The nature of data set [27]: Half life in Beagle dog at 2.5 mg/kg, iv. The class given is ADME, organism-based, Canis lupus familiaris. Particulars: in vivo.
A short description of data set [28]: Metabolic stability in human liver microsomes assessed as half life. It counts as ADME, Microsome.
Data set [29] can be described thus: Metabolic stability in dog liver microsomes assessed as half life. The class given is ADME, Canis lupus familiaris, Microsome.
Data set [30] in a line: Oral bioavailability in Beagle dog at 5 mg/kg. The class given is ADME, organism-based, Canis lupus familiaris. Particulars: in vivo.
Data set [31] is described as follows: Volume of distribution at steady state in Beagle dog at 2.5 mg/kg, iv. It counts as ADME, organism-based, Canis lupus familiaris. Particulars: in vivo.
Data set [32] in a line: AUC(0 to infinity) in Beagle dog at 5 mg/kg, po. The class given is ADME, organism-based, Canis lupus familiaris. Details: time infinity, dose 5 mg/kg, route po. The conditions noted are these: in vivo.

T1 sequence (P08684 whole entry): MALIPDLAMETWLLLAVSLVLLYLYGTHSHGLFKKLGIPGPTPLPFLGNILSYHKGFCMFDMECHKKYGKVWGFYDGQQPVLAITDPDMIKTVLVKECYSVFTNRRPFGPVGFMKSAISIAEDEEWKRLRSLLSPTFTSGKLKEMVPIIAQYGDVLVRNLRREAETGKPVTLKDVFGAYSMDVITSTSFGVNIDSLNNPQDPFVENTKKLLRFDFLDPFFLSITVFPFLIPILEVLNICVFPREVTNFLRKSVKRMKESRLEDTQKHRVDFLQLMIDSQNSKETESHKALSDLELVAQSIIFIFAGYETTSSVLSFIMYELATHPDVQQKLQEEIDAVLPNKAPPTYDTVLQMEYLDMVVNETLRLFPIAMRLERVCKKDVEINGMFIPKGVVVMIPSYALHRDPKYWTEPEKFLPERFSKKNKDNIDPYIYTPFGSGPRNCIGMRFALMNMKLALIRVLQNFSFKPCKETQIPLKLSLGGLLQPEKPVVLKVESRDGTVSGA
Sequence of Somatostatin receptor type 5 (Homo sapiens, UniProt P35346) (P35346 whole entry): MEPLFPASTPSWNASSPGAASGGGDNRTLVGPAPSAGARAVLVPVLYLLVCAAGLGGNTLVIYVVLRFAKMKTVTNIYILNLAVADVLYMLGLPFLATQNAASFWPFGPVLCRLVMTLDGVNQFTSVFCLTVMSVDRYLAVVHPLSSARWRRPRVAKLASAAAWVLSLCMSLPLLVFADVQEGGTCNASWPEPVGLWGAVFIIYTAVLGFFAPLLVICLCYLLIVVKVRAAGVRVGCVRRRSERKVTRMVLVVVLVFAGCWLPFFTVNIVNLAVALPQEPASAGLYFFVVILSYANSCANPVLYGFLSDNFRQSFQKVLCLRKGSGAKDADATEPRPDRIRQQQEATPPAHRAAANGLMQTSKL
T2 sequence (P10635 whole entry): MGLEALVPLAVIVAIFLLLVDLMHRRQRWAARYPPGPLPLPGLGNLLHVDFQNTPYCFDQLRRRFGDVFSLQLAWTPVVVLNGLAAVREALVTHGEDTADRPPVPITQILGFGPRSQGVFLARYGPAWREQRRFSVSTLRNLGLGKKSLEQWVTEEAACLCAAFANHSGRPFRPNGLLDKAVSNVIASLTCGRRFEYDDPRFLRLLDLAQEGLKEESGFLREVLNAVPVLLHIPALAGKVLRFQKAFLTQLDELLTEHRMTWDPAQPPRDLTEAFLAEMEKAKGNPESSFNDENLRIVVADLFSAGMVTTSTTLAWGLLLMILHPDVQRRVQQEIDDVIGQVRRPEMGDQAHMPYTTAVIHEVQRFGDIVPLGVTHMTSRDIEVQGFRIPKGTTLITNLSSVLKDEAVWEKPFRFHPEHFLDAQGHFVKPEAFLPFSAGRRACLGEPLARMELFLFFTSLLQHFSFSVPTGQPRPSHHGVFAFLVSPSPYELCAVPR

With `NCC1CN(c2c(-c3cccc(Cl)c3)cncc2-c2nc3c(F)cc(F)cc3[nH]2)C1`, the EC50 in data set [1] was found to be 0.36 nM.

One may read the IC50 as the point on the concentration scale where inhibition reaches its midpoint. The term pEC50 denotes the negative decadic logarithm of the EC50, by convention in mol/L. With `Cc1ccc(F)c2[nH]c(-c3cncc(-c4cc(F)cc(C#N)c4)c3N3CC[C@H](N)C3)nc12`, the EC50 in [1] was 0.23 nM; in data set [3], over 1000 nM; in data set [4], 10 nM; in data set [5], 0.31 nM; in data set [9], 3.98 nM; in [10] (read-out: pEC50 (converted)), 251 nM. The concentration for half-maximal inhibition (IC50) on Cytochrome P450 3A4 [2] is over 10000 nM; in [6], 280 nM; against Cytochrome P450 2D6 [7], 4000 nM; against Cytochrome P450 2D6 [8], 5300 nM; on Cytochrome P450 3A4 [11], over 10000 nM. The compound also came in with a pEC50 in data set [3] of under 6.

What is called AUC(0-inf) is the area under the concentration-time curve extrapolated to infinity. Broadly, the Vdss is the apparent volume that relates the amount in the body to the concentration in plasma or blood. What is called Cmax is the peak of the concentration-time curve. As usually defined, the bioavailability is the share of a dose that reaches the circulation, judged against a reference dose that is usually intravenous. In turn, `N[C@H]1CCN(c2c(-c3cc(F)cc(Cl)c3)cncc2-c2nc3c(F)cccc3[nH]2)C1` gave an AUC(0-inf) in [12] of 2480 ng·h/mL. The distribution volume (Vdss) in [13] turned out to be 22 L/kg. Besides, the highest level in [14] (Cmax) was 181 ng/mL. The figures for the CLH in data set [15] and in data set [16] were 10 mL/min/g and 14 mL/min/g, respectively. Moreover, the figures for the IC50 against Cytochrome P450 2D6 [17] and at Cytochrome P450 2D6 [18] were 90 nM and 400 nM, respectively. The compound also returned a bioavailability in [19] of 74%. Moreover, the t1/2 in [20] is 7.1 min.

Consider `N#Cc1cc(-c2cncc(-c3nc4c(F)cccc4[nH]3)c2N2CC[C@H](N)C2)ccc1F`, for which the EC50 in data set [1] turned out to be 0.62 nM.

As to `CC1(N)CCN(c2c(-c3cccc(C#N)c3)cncc2-c2nc3c(F)cccc3[nH]2)C1` (stereo not drawn), in data set [1], the EC50 amounted to 0.071 nM.

For the compound `Cc1cccc(-c2cncc(-c3nc4c(F)cc(F)cc4[nH]3)c2N2CC(CN)C2)c1`, in data set [1], the EC50 stood at 2.3 nM.

As to `Cc1cc(F)cc(-c2cncc(-c3nc4cc(F)ccc4[nH]3)c2N2CC(CN)C2)c1`, the EC50 in [10] (read-out: EC50) is over 1000 nM.

Consider `N#Cc1cccc(-c2cncc(-c3nc4c(F)cc(F)cc4[nH]3)c2N2CC(CN)C2)c1`, for which the EC50 in data set [1] worked out at 2.6 nM.

For the compound `Cc1cc(F)cc(-c2cncc(-c3nc4c(F)cc(F)cc4[nH]3)c2N2CC(C)(CN)C2)c1`, the EC50 in [1] came to 2.3 nM.

As for `Cc1cc(F)cc(-c2cncc(-c3nc4c(F)cc(F)cc4[nH]3)c2N2CC(CN)C2)c1`, the EC50 in data set [1] amounted to 2.2 nM.

On to `NCC1CN(c2c(-c3cccc(F)c3)cncc2-c2nc3c(F)cc(F)cc3[nH]2)C1`, for which the EC50 in data set [1] came out at 6.1 nM.

Consider `Cc1cc(F)cc(-c2cncc(-c3nc4c(C#N)cccc4[nH]3)c2N2CC(CN)C2)c1`, for which, in data set [1], the EC50 is 19 nM.

`CC(N)C1CN(c2c(-c3cc(F)cc(C(F)(F)F)c3)cncc2-c2nc3c(F)cc(F)cc3[nH]2)C1` (stereo not drawn): the EC50 in data set [1] was 0.27 nM.

Turning to `N#Cc1ccc(-c2cncc(-c3nc4c(F)cccc4[nH]3)c2N2CC[C@H](N)C2)cc1F`, the EC50 in data set [1] is 45 nM.

With `Cc1cc(F)cc(-c2cncc(-c3nc4c(Cl)cccc4[nH]3)c2N2CC(CN)C2)c1`, the EC50 in data set [1] stood at 1.2 nM.

A word on the half-life: it is the time in which the quantity being followed falls by half. For the compound `Cc1cccc2[nH]c(-c3cncc(-c4cc(F)cc(C#N)c4)c3N3CC[C@H](N)C3)nc12`, the concentration for half-maximal inhibition (IC50) was over 10000 nM against Cytochrome P450 2C9; over 10000 nM on Cytochrome P450 3A4 [2]; over 10000 nM on Cytochrome P450 2C19; […] in data set [6]; 7500 nM against Cytochrome P450 2D6 [7]; 10000 nM at Cytochrome P450 2D6 [8]. The compound also returned an IC50 at Cytochrome P450 3A4 [11] of over 10000 nM. For the same compound, the CLH in data set [21] stood at 94.3 mL/min/g; in data set [15], 2 mL/min/g; in data set [16], 2 mL/min/g. In addition, the half-life was over 693 min in [22], […] in data set [23], over 693 min in data set [28] and […] in data set [29]. For the same compound, the figures for the total exposure AUC(0-inf) in data set [12] and in data set [32] were 951 ng·h/mL and 4660 ng·h/mL, respectively. Also, the figures for the Vdss in data set [24] and in data set [31] were 17 L/kg and 12.9 L/kg, respectively. Besides, the Cmax worked out at 78 ng/mL in data set [14] and 324 ng/mL in [25]. This compound showed an EC50 in [5] of […]. In addition, the t1/2 is recorded as […] in data set [26] and 16.9 min in data set [27]. The results for the bioavailability in data set [19] and in data set [30] were 33% and 55%, respectively.

On to `N#Cc1cccc(-c2cncc(-c3nc4c(F)cccc4[nH]3)c2N2CCC(N)(CO)C2)c1` (stereo not drawn), for which the EC50 in data set [1] amounted to 1 nM.

In the case of `Cc1c(F)ccc2[nH]c(-c3cncc(-c4cc(F)cc(C#N)c4)c3N3CC[C@H](N)C3)nc12`, in [1], the EC50 worked out at 0.65 nM.

Consider `NCC1CN(c2c(-c3nc4c(F)cc(F)cc4[nH]3)cncc2-c2ccccc2F)C1`, for which the EC50 in data set [1] turned out to be 400 nM.

Turning to `N#Cc1cccc(-c2cncc(-c3nc4c(F)cccc4[nH]3)c2N2CC[C@H](N)C2)c1`, the EC50 in data set [1] was determined as 0.55 nM.

Consider `Cc1cc(F)cc2[nH]c(-c3cncc(-c4cc(F)cc(C#N)c4)c3N3CC[C@H](N)C3)nc12`, for which, in [1], the EC50 is 2.1 nM.

For `Cc1cccc2c1nc(-c1cncc(-c3cc(F)cc(C#N)c3)c1N1CC[C@H](N)C1)n2C`, the EC50 in data set [1] stood at 4.2 nM.

In the case of `C[C@]1(N)CCN(c2c(-c3cccc(C#N)c3)cncc2-c2nc3c(F)cccc3[nH]2)C1`, the EC50 in data set [1] stood at 0.047 nM.

Consider `N#Cc1cccc(-c2cncc(-c3nc4c(F)cccc4[nH]3)c2N2CC(N)C(C(F)(F)F)C2)c1` (mixture of isomers), for which, in data set [1], the EC50 came to 42 nM.

Regarding `N#Cc1cccc(-c2cncc(-c3nc4c(F)cccc4[nH]3)c2N2C[C@@H](N)[C@H](O)C2)c1` (racemic), the EC50 in data set [1] was found to be 46 nM.
